Reference: patent US6673574B2, “Oral delivery of peptides using enzyme-cleavable membrane translocators” (Unigene Laboratories Inc., priority 2000, dated 2004)
Read-outs that look alike come from different tables or passages of the source. Values belong to the molecule of their own block, whether it stands above or below them.

Tests used:
[1] = Absorption from rat duodenum: intraduodenal injection, plasma concentration by competitive enzyme immunoassay; type: in vivo; conditions: for Cmax: peak plasma concentration by inspection
Method: Female Sprague-Dawley rats (250-275 g) (n=4 for each peptide) were anesthetized with ketamine and xylazine prior to the insertion of a cannula in the carotid artery. The cannula was fitted to a three way valve through which blood was sampled and replaced with physiological saline containing heparin. A midline incision was made in the abdominal cavity, and 0.45 mL of either sCT-gly (10 mg/mL) or OmpA-MT3-sCT-gly (10 mg/mL) in 0.5M citric acid was injected directly into the duodenum. Blood (0.5 ml) was collected before and at 5, 15, 30, 45 and 60 minutes after administration of the peptides. The blood was centrifuged, and the concentration (± SEM [standard error of the mean]) of sCT-gly or OmpA-MT3-sCT-gly in the plasma supernatant was determined by a competitive enzyme immunoassay (EIA). Peak plasma concentration (Cmax) was determined by inspection. The absolute bioavailbilty of each peptide (relative to an intravenous dose of sCT [salmon calcitonin]) was calculated from plots of the plasma concentration of each peptide as a function to time.

[2] = Blood levels of salmon calcitonin after direct injection into duodenum, ileum or colon of rats; type: in vivo; conditions: rat, other: injected directly into the duodenum, active components injected directly into duodenum
From the text: The acid is believed to lower the local intestinal pH (where the active agent has been released) to levels below the optimal range for many intestinal proteases and other intestinal enzymes. This decrease in pH reduces the proteolytic activity of the intestinal proteases, thus affording protection to the peptide and the membrane translocator from potential degradation. The activity of these proteases is diminished by the temporarily acidic environment provided by the invention. It is preferred that sufficient acid be provided that local intestinal pH is lowered temporarily to 5.5 or below, preferably 4.7 or below and more preferably 3.5 or below. The sodium bicarbonate test described below (in the section captioned “the pH-Lowering Agent”) is indicative of the required acid amount.

[3] = cited from earlier work
[4] = 0 min (before administration), 0.45 mL of 10 mg/mL in 0.5M citric acid into duodenum, ± SEM, n=4

plasma concentration [1, 4]: 0.00 ng/mL
Cmax ([1]; female, Sprague-Dawley, 4.5 mg, intraduodenal, rat, ± SEM, read-out: Cmax): 223 ± 44.8 ng/mL
bioavailability ([1]; female, Sprague-Dawley, plasma, other: injected directly into the duodenum (intraduodenal), 4.5 mg, relative to an intravenous dose of sCT, intraduodenal, rat, ± SEM, read-out: Absolute bioavailability): 0.92 ± 0.23%
level at 5 min ([1]; female, Sprague-Dawley, rat, plasma, 4.5 mg per animal, 5 min after intraduodenal injection, ± SEM, n=4): 201 ± 73.7 ng/mL
level at 0.25 h ([1]; female, Sprague-Dawley, rat, plasma, 4.5 mg per animal, 15 min after intraduodenal injection, ± SEM, n=4): 116 ± 39.1 ng/mL
level at 0.5 h ([1]; female, Sprague-Dawley, rat, plasma, 4.5 mg per animal, 30 min after intraduodenal injection, ± SEM, n=4): 223 ± 44.8 ng/mL
level at 0.75 h ([1]; female, Sprague-Dawley, rat, plasma, 4.5 mg per animal, 45 min after intraduodenal injection, ± SEM, n=4): 151 ± 107 ng/mL
level at 1 h ([1]; female, Sprague-Dawley, rat, plasma, 4.5 mg per animal, 60 min after intraduodenal injection, ± SEM, n=4): 179 ± 76.2 ng/mL
Molecule: CC(C)C[C@H](NC(=O)[C@H](CCCCN)NC(=O)CNC(=O)[C@H](CC(C)C)NC(=O)[C@@H](NC(=O)[C@@H]1CSSC[C@H](N)C(=O)N[C@@H](CO)C(=O)N[C@@H](CC(N)=O)C(=O)N[C@@H](CC(C)C)C(=O)N[C@@H](CO)C(=O)N[C@@H]([C@@H](C)O)C(=O)N1)C(C)C)C(=O)N[C@@H](CO)C(=O)N[C@@H](CCC(N)=O)C(=O)N[C@@H](CCC(=O)O)C(=O)N[C@@H](CC(C)C)C(=O)N[C@@H](Cc1c[nH]cn1)C(=O)N[C@@H](CCCCN)C(=O)N[C@@H](CC(C)C)C(=O)N[C@@H](CCC(N)=O)C(=O)N[C@H](C(=O)N[C@@H](Cc1ccc(O)cc1)C(=O)N1CCC[C@H]1C(=O)N[C@@H](CCCNC(=N)N)C(=O)N[C@H](C(=O)N[C@@H](CC(N)=O)C(=O)N[C@H](C(=O)NCC(=O)N[C@@H](CO)C(=O)NCC(=O)N[C@H](C(=O)N1CCC[C@H]1C(=O)NCC(=O)O)[C@@H](C)O)[C@@H](C)O)[C@@H](C)O)[C@@H](C)O [sCT-gly, CYS-SER-ASN-LEU-SER-THR-CYS-VAL-LEU-GLY-LYS-LEU-SER-GLN-GLU-LEU-HIS-LYS-LEU-GLN-THR-TYR-PRO-ARG-THR-ASN-THR-GLY-SER-GLY-THR-PRO-GLY]

Tmax [2]: 5 to 15 min
Molecule: CC(C)C[C@H](NC(=O)[C@H](CCCCN)NC(=O)CNC(=O)[C@H](CC(C)C)NC(=O)[C@@H](NC(=O)[C@@H]1CSSC[C@H](N)C(=O)N[C@@H](CO)C(=O)N[C@@H](CC(N)=O)C(=O)N[C@@H](CC(C)C)C(=O)N[C@@H](CO)C(=O)N[C@@H]([C@@H](C)O)C(=O)N1)C(C)C)C(=O)N[C@@H](CO)C(=O)N[C@@H](CCC(N)=O)C(=O)N[C@@H](CCC(=O)O)C(=O)N[C@@H](CC(C)C)C(=O)N[C@@H](Cc1c[nH]cn1)C(=O)N[C@@H](CCCCN)C(=O)N[C@@H](CC(C)C)C(=O)N[C@@H](CCC(N)=O)C(=O)N[C@H](C(=O)N[C@@H](Cc1ccc(O)cc1)C(=O)N1CCC[C@H]1C(=O)N[C@@H](CCCNC(=N)N)C(=O)N[C@H](C(=O)N[C@@H](CC(N)=O)C(=O)N[C@H](C(=O)NCC(=O)N[C@@H](CO)C(=O)NCC(=O)N[C@H](C(=O)N1CCC[C@H]1C(N)=O)[C@@H](C)O)[C@@H](C)O)[C@@H](C)O)[C@@H](C)O [salmon calcitonin]
blood levels more than two hours after injection ([3]; conventional dosages): no detectable blood levels
peak level at which some patients report gastrointestinal distress ([3]; patients): ≥ 200 picograms per milliliter
half-life ([3]; subcutaneous administration in man): 20 to 40 min
peak serum concentration ([3]; subcutaneous, 100 International units): about 250 picograms per milliliter

B1: OmpA-MT3-sCT-gly: salmon calcitonin-Gly fused to two MTs, the unprocessed OmpA signal peptide and MTS3 (HIV TAT domain), with TRP-VAL-ALA cleavable sequence (protein)
chain: MKKTAIAIAVALAGFATVAQAYGRKKRRQRRRWVACSNLSTCVLGKLSQELHKLQTYPRTNTGSGTPG
modifications: ends and bridges not checked
plasma concentration [1, 4]: 0.00 ng/mL
plasma concentration ([1]; 5 min after intraduodenal injection, ± SEM, n=4): 563.07 ± 150.44 ng/mL
plasma concentration ([1]; 15 min after intraduodenal injection, ± SEM, n=4): 1861.86 ± 713.20 ng/mL
plasma concentration ([1]; 30 min after intraduodenal injection, ± SEM, n=4): 5603.76 ± 1749.75 ng/mL
plasma concentration ([1]; 45 min after intraduodenal injection, ± SEM, n=4): 3879.76 ± 713.62 ng/mL
plasma concentration ([1]; 60 min after intraduodenal injection, ± SEM, n=4): 6060.70 ± 2462.69 ng/mL
Cmax relative to that of sCT-gly ([1]; intraduodenal, rat): more than 25 fold
Cmax ([1]; intraduodenal, rat, ± SEM): 6060.70 ± 2462.69 ng/mL
Absolute bioavailability ([1]; relative to an intravenous dose of sCT, intraduodenal, rat, ± SEM): 21.26 ± 6.23%
